Data reported in article PMC10318456, “Selective inhibitors of the PSEN1–gamma-secretase complex” (The Journal of Biological Chemistry, 2023).
pIC50: −log10 of the molar value.

How the values were obtained:
Type in all cases: cell-based
[1] = target: T1, PSEN1 W165A–APH1A γ-secretase complex (Homo sapiens, UniProt P49768, W165A); assay: Aβ40 secretion, MEF cell pool restored with PSEN1 W165A–APH1A; settings: decimal comma
T1 construct: expressed in transfected cells; host or cells: Psen1/2 double KO/Aph1ABC triple KO MEFs, pools without clonal selection
Procedure: (§1) We turned to experimental site–directed mutagenesis and selected a series of amino acids (Fig. 3) in the entrance channel for mutation to alanine. […] More importantly, they were all enzymatically active as shown by the secretion of Aβ40 in the supernatants of the cell cultures (Fig. 3B).
(§2) Conditional Psen1/2 double KO mice were crossed with conditional Aph1ABC triple KO mice ([29], [52], [58], [59]). At embryonic day 7.5, embryos were dissected and dissociated, and cells were plated in the presence of Dulbecco’s modified Eagle’s medium (DMEM)/F12 50% fetal calf serum (FCS) (Invitrogen). Primary MEFs were immortalized by transduction with LargeT antigen. Psen1/2 double KO/Aph1ABC triple KO MEFs were generated by transduction with a Cre-GFP–expressing adenoviral vector, and GFP-positive MEFs were sorted by fluorescence-activated cell sorting analysis. Psen1/2 Aph1ABC-deficient MEFs were maintained in DMEM/f12 10% FCS. To rescue γ-secretase expression, Psen1/2 double KO/Aph1ABC triple KO MEFs were transduced using Murine Stem Cell Virus retroviral vector system (pMSCV) viral vectors (Clontech) containing the human coding sequences of the different PSEN and APH1 homologs and the zeocin selection marker. An Internal Ribosome Entry Site sequence was cloned between the coding sequences for PSEN and APH1 to ensure co-expression of both proteins. Stable transfected cell lines were selected using 500-μg/ml zeocin (Invitrogen). Four different combinations were made: PSEN1 and APH1AL, PSEN1 and APH1B, PSEN2 and APH1AL, and PSEN2 and APH1B. These cell lines were transduced with pMSCV viral vectors (Clontech) expressing APP-C99-GFP-puromycin. […]
(§3) The number of plated cells and incubation times were determined in respect to linearity of Aβ peptide secretion, the dynamic range of Aβ peptide quantification in the medium, and sensitivity to dimethylsulfoxide (DMSO). […] The cell viability was assessed using the CellTiter-Glo Luminescent assay (Promega) that measures ATP production. […] We however measured five compounds at the Leuven site and noticed that absolute IC50 values were different (Fig. S2). […]

[2] = target: T2, PSEN1-APH1B γ-secretase complex (Homo sapiens, UniProt P49768); assay: Aβ40 secretion by MEF cell line expressing only PSEN1-APH1B γ-secretase (APP-C99-GFP reporter); settings: 8 h, Beerse site unless otherwise indicated, read-out: IC50, Aβ40 peptides
T2 construct: expressed in transfected cells; host or cells: Psen1/2 double KO/Aph1ABC triple KO MEFs, pMSCV retroviral PSEN-IRES-APH1
Source text: Mouse embryonic fibroblast (MEF) cells deficient for the Psen and Aph1 genes (Psen1/2^−/−, Aph1ABC^−/−) were reconstituted with human PSEN1 or PSEN2 and with human APH1A or APH1B to generate four independent cell lines, each constitutively expressing exclusively one type of γ-secretase complex (Fig. S1A) ([19]). A human APP-C99-GFP reporter was introduced to enable the measurement of Aβ peptides in the conditioned media of the cells to monitor γ-secretase activity. The assay was established in a 96-well format.
(§4) Conditional Psen1/2 double KO mice were crossed with conditional Aph1ABC triple KO mice ([29], [52], [58], [59]). At embryonic day 7.5, embryos were dissected and dissociated, and cells were plated in the presence of Dulbecco’s modified Eagle’s medium (DMEM)/F12 50% fetal calf serum (FCS) (Invitrogen). Primary MEFs were immortalized by transduction with LargeT antigen. Psen1/2 double KO/Aph1ABC triple KO MEFs were generated by transduction with a Cre-GFP–expressing adenoviral vector, and GFP-positive MEFs were sorted by fluorescence-activated cell sorting analysis. Psen1/2 Aph1ABC-deficient MEFs were maintained in DMEM/f12 10% FCS. To rescue γ-secretase expression, Psen1/2 double KO/Aph1ABC triple KO MEFs were transduced using Murine Stem Cell Virus retroviral vector system (pMSCV) viral vectors (Clontech) containing the human coding sequences of the different PSEN and APH1 homologs and the zeocin selection marker. An Internal Ribosome Entry Site sequence was cloned between the coding sequences for PSEN and APH1 to ensure co-expression of both proteins. Stable transfected cell lines were selected using 500-μg/ml zeocin (Invitrogen). Four different combinations were made: PSEN1 and APH1AL, PSEN1 and APH1B, PSEN2 and APH1AL, and PSEN2 and APH1B. These cell lines were transduced with pMSCV viral vectors (Clontech) expressing APP-C99-GFP-puromycin. After puromycin selection (5 μg/ml), GFP-positive cells were selected through FACS sorting. For the alanine mutagenesis experiment, pMSCV PSEN1-APH1A viral vectors were generated by using a long PCR-based QuikChange strategy (Stratagene). Stable cell lines without clonal selection were generated for each mutant as described above. All cell lines were regularly tested for the absence of mycoplasma and used for maximum 20 passages in culture.
(§5) The number of plated cells and incubation times were determined in respect to linearity of Aβ peptide secretion, the dynamic range of Aβ peptide quantification in the medium, and sensitivity to dimethylsulfoxide (DMSO). […] MEF cells were plated in DMEM F12 supplemented with 10% FCS at 10,000 cells per well in 96-well clear bottom plates in the late afternoon and cultured for 16 h at 37 °C, 5% CO2. In the morning of the second day, the medium was replaced with 60 μl of DMEM/F12 supplemented with 2% FCS, and GSI or DMSO (controls) were added. Compounds were tested in serial dilutions with concentrations ranging from […] to 0.1 nM with 3-fold changes. The final concentration of DMSO in all wells was 0.2%. Plates were put in the incubator again at 37 °C, 5% CO2. After 8 h, the culture media were collected, and 30 μl was used to measure Aβ40 peptides. The cell viability was assessed using the CellTiter-Glo Luminescent assay (Promega) that measures ATP production. All screens were performed at one site, and reported IC50 values throughout the manuscript are from this site (Beerse) unless otherwise indicated.
Standard 96-well SECTOR plates (MSD) were coated with 1.5 μg/ml anti-Aβ JRFcAβ40/28 capture antibody in a final volume of 50 μl of PBS 0.05% Tween 20.

[3] = target: T3, PSEN1 W165A–APH1A γ-secretase complex (Homo sapiens, UniProt P49768+Q92542+Q96BI3+Q9NZ42, W165A); assay: Aβ40 secretion, MEF cell pool restored with PSEN1 W165A–APH1A; settings: PSEN1 W165A (TM3)–APH1A cell pool; N = 3 to 4; mean (95% CI); decimal comma
T3 construct: expressed in transfected cells; host or cells: Psen1/2 double KO/Aph1ABC triple KO MEFs, pools without clonal selection
Procedure: as §1, §2, §3

[4] = target: T4, PSEN1 L172A–APH1A γ-secretase complex (Homo sapiens, UniProt P49768+Q92542+Q96BI3+Q9NZ42, L172A); assay: Aβ40 secretion, MEF cell pool restored with PSEN1 L172A–APH1A; settings: PSEN1 L172A (TM3)–APH1A cell pool; N = 3 to 4; mean (95% CI); decimal comma
T4 construct: expressed in transfected cells; host or cells: Psen1/2 double KO/Aph1ABC triple KO MEFs, pools without clonal selection
Procedure: as §1, §4
as §5, with “indicated. We however measured five compounds at the Leuven site and noticed that absolute IC50 values were different (Fig. S2). The main goal of the current work is to explore the basis for inhibitor selectivity for different γ-secretases, and selectivity was consistent in the assays at the two sites (Fig. S2).” for “indicated.”
Standard 96-well SECTOR plates (MSD) were coated with 1.5 μg/ml anti-Aβ JRFcAβ40/28 capture antibody in a final volume of 50 μl of PBS 0.05% Tween 20. After overnight incubation at 4 °C, the plates were five times rinsed with PBS 0.05% Tween 20 and blocked with 150 μl per well of casein buffer (PBS with 1% casein, pH 7.4) for 4 h at room temperature. Standards (synthetic human Aβ 1–40) were diluted in culture media. […]

Compound	IC50 ([1]; PSEN1 W165A (TM3)–APH1A cell pool, N = 3 to 4, mean (95% CI))	IC50 fold change to WT ([1]; PSEN1 W165A–APH1A cell pool)	pIC50 [2]	IC50 [3]	IC50 [4]
C[C@H](NC(=O)Cc1cc(F)cc(F)c1)C(=O)N[C@H](C(=O)OC(C)(C)C)c1ccccc1 [DAPT]	0.304 µM	1,802 fold	–	–	–
O=S(=O)(c1ccc(Cl)cc1)N1[C@H]2CC[C@@H]([C@H]1c1ccc(C(F)(F)F)cc1)[C@@H](O)C2 [(+)-9b]	–	–	8.22	0.102 µM	0.0094 µM
